The values that follow come from the RepoRT retention time repository (doi:10.1007/s11306-014-0727-x).

A short description of this data set: HILIC, Merck SeQuant ZIC-pHILIC, 100 × 2.1 mm, 5 µm, 25 °C; gradient (min/%B) 0/3 1/3 12/30 14.5/90 17/90 18.5/3 24/3. The following applies: stereoisomer not certain.

In turn, `Cc1cn(C2CC(O)C(COP(=O)(O)O)O2)c(=O)[nH]c1=O` (stereo not given) [Thymidine monophosphate] came in with an LC retention time of 11.9 min.
Compound `Cc1cn(C2CC(O)C(CO)O2)c(=O)[nH]c1=O` (stereo not given) [Thymidine] registered an LC retention time of 4.41 min.
Consider `Cc1c[nH]c(=O)[nH]c1=O` [Thymine], for which the LC retention time stood at 3.51 min.
Turning to `O=C(O)[C@@H]1C[C@@H](O)CN1` [Trans-4-hydroxy-L-proline], the LC retention time came out at 12.1 min.
`NCCc1c[nH]c2ccccc12` [Tryptamine]: the LC retention time turned out to be 9.86 min.
For the compound `NCCc1ccc(O)cc1` [Tyramine], the LC retention time was 10.5 min.
Consider `NC(N)=O` [Urea], for which the LC retention time was 7.16 min.
With `O=c1[nH]c(=O)c2[nH]cnc2[nH]1` [Xanthine], the LC retention time was 8.29 min.
To `O=c1c2ccccc2oc2ccccc12` [Xanthone] belongs 1.22 min; to `Nc1ccc(C(=O)NCC(=O)O)cc1` [p-aminohippuric acid], 5.67 min.
